Values after ≈ are worked out from the molar mass of the structure shown. Structures can show the parent of a compound that is named as a salt. Where two headings read alike, the source gives them in different places. Values belong to the molecule of their own block, whether it stands above or below them.
Legend:
[1] = system: PC12 cells; test: NGF-stimulated neurite outgrowth in PC12 cells; type: cell-based; settings: 100 nM compound, NGF 100 ng/ml, 6 days
Protocol: In chronic pain states, neurons form outgrowths which sensitize them to pain. NGF-induced neurite outgrowth was used as an assay for TrkA-dependent chronic/neuropathic pain activity.
Methods: PC12 cells were grown in 2% FBS and treated with or without NGF (100 ng/ml) 30 min before adding of vehicle or TRKA compounds for 6 days, changing media on day 3. On day 6 cells were fixed and stained for SRB before photographed for neurite outgrowth.

[2] = system: PC-12 cells; test: PC-12 cell cytotoxicity; type: cell-based; settings: FIG. 13
[3] = target: TRKA (Homo sapiens, UniProt P04629); test: TRKA kinase assay; type: biochemical; design: 6×His- or GST-tagged kinase domain fragments of the corresponding RTKs expressed in baculovirus system; host or cells: baculovirus system; settings: Table 3A; read-out: Cell Free IC50 TRKA
Sequence of TRKA (P04629 510-781 limits assumed): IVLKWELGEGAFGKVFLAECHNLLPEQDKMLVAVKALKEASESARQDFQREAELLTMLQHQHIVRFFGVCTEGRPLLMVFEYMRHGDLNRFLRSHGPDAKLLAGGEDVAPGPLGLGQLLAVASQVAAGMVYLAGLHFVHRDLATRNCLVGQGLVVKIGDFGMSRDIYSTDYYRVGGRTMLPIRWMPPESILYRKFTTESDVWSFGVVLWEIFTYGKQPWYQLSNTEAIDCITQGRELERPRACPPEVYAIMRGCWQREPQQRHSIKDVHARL

[4] = Liver microsome stability, Mouse LM-P1 / MLM; type: in vitro ADME; settings: for CLint scaled: Table 3A, mouse liver microsomes, read-out: CL MLM; for half-life / microsomal CLint: mouse, liver microsomes; for microsomal CLint: read-out: Mouse LM-P1 CL
[5] = system: Karpas299; test: Cell proliferation inhibition, ALCL line Karpas299; type: cell-based; settings: Homo sapiens, KARPAS-299; Table 3A; read-out: Cellular IC50 K-299
Excerpt: The IL-3-dependent lymphoid cell line BaF3 or BaF3 rendered IL-3-independent by engineered expression of NPM-ALK were used in parallel to test each candidate inhibitor. Control wells contained DMSO solvent without test compound. Specific inhibition of ALK signaling is indicated in the assay by impairment of NPM-ALK-expressing BaF3 cell growth without alterations in the growth of parental BaF3. This colorimetric assay of cell proliferation and viability is based upon reduction of the yellow monotetrazolium salt XTT to a water-soluble orange formazan dye, a reaction catalyzed by mitochondrial dehydrogenases in living cells only (Cell Proliferation Kit II, Cat. #1 465 015, Roche Biochemicals). In addition to testing compounds for their ability to impair the growth of BaF3 cells engineered to express NPM-ALK, the NPM-ALK-positive human lymphoma cell line Karpas-299 (Deutsche Sammlung von Mikroorganismen and Zellkulturen GmbH (DSMZ) no. ACC 31), the human BCR-ABL-positive chronic myeloid leukemia cell line K562 (American Type Culture Collection (ATCC) no. CCL-243), and the human T-cell leukemia line Jurkat (DSMZ no. ACC 282) were tested in these assays.
Each compound stock in 100% DMSO was first diluted using 8% DMSO/culture medium to produce a working stock of 250 μM compound. This working stock was then used to perform serial 1:1 dilutions (i.e., 125 μM, 62.5 μM, 31.25 μM, 15.625 μM, 7.8125 μM, and 3.90625 μM) using DMSO-free culture medium. Twenty (20) μL of each of these dilutions was then added to the cells (2×10^4 cells in 80 μL culture medium per 96-well) to obtain the final test compound concentrations (i.e., 25 μM, 12.5 μM, 6.25 μM, 3.125 μM, 1.5625 μM, and 0.78125 μM).
(§1) Cell proliferation inhibition assays were run for compound (II) with the five target NPM-ALK-dependent ALCL cell lines (Karpas 299, SuDHL-1, JB6, SupM2, UConn) and 12 unrelated cell lines (HEK293, CHO-K1, MCF7, HepG2, H292, H520, H1581, H596, H522, CHA-GO-K1, UMC-11, SK-MES1). […] The pronounced target cell-killing effect is also observed (molecular mechanisms to be determined).

[6] = system: SUDHL-1; test: Cellular IC50, SUDHL-1; type: cell-based; settings: Homo sapiens, SU-DHL-1; Table 3A
Excerpt: as §1

[7] = target: T1, IRK (Homo sapiens, UniProt P06213); test: IRK (insulin receptor kinase) assay; type: biochemical; settings: Table 3A; read-out: Cell Free IC50 IRK
T1 construct: 6×His- or GST-tagged kinase domain fragments of the corresponding RTKs expressed in baculovirus system; host or cells: baculovirus system
T1 sequence (P06213 1023-1298 limits assumed): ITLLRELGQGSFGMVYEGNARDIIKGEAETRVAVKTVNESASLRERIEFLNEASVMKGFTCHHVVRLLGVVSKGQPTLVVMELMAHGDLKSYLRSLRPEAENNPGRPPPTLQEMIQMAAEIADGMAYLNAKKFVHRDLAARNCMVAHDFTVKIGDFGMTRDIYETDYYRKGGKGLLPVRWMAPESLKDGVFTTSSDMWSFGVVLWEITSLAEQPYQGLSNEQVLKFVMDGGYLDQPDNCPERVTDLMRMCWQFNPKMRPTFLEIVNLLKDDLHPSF
How it was run: (§2)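 The AlphaScreen PT66 format of the NPM-ALK assay was applied with minor modifications to commercial recombinant His/GST-tagged kinase domains. Compound (0.078125–40 μM) was incubated 30 min at RT with 10 μM ATP and biotinylated poly-GT in Tris pH 7.5/MgCl2/MnCl2/DTT buffer, then beads 60 min. Read at 520–680 nm; IC50 and Ki derived.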

[8] = system: U937; test: Cellular IC50, U937; type: cell-based; settings: Homo sapiens, U-937; Table 3A
[9] = target: T2, IGF1R (Homo sapiens, UniProt P08069); test: IGF1R kinase assay; type: biochemical; settings: Table 3A; read-out: Cell Free IC50 IGF1R
T2 construct: 6×His- or GST-tagged kinase domain fragments of the corresponding RTKs expressed in baculovirus system; host or cells: baculovirus system
T2 sequence (P08069 999-1274 limits assumed): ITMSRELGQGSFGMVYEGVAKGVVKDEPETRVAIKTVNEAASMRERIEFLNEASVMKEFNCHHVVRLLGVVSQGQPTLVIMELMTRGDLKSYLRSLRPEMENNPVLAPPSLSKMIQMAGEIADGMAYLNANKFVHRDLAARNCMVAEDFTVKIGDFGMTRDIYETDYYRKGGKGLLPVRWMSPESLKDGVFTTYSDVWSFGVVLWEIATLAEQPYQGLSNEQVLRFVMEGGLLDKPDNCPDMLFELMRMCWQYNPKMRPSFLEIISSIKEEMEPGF
How it was run: as §2

[10] = Liver microsome stability, Human LM-P1 / HLM; type: in vitro ADME; settings: for CLint scaled: Table 3A, human liver microsomes, read-out: CL HLM; for half-life / microsomal CLint: human, liver microsomes; for microsomal CLint: read-out: Human LM-P1 CL
Excerpt: Metabolic stability of compound (II) (labeled as CRL241 below) in vitro has been tested in a standard in vitro microsomal stability assay in human microsomes (Cerep Study 13170).

[11] = Aqueous Solubility (PBS, pH 7.4); type: physicochemical; settings: pH 7.4, 2.0E−04 M; for solubility: pH 7.4, PBS
[12] = Partition Coefficient (Log D, n-octanol/PBS, pH 7.4); type: physicochemical; settings: 1.0E−04 M; for logD: read-out: Partition Coefficient Log D, Weighed Average of Three Replicates
[13] = target: ALK (Homo sapiens, UniProt Q9UM73); test: ALK kinase assay (Kinase-Glo / AlphaScreen, purified NPM-ALK); type: biochemical; design: fused to the complete intracytoplasmic portion of ALK containing the functional tyrosine kinase domain; 6xHis; made in house; host or cells: insect cells; the other entry of the earlier key: NPM1 (P06748, Nucleophosmin);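 further: recombinant baculovirus-expressed ALK kinase domain, activity read either as leftover ATP by Kinase-Glo luminescence or as poly(Glu-Tyr) phosphorylation by anti-phosphotyrosine AlphaScreen proximity signal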
Sequence of ALK (Q9UM73 with tags, fused parts or gaps): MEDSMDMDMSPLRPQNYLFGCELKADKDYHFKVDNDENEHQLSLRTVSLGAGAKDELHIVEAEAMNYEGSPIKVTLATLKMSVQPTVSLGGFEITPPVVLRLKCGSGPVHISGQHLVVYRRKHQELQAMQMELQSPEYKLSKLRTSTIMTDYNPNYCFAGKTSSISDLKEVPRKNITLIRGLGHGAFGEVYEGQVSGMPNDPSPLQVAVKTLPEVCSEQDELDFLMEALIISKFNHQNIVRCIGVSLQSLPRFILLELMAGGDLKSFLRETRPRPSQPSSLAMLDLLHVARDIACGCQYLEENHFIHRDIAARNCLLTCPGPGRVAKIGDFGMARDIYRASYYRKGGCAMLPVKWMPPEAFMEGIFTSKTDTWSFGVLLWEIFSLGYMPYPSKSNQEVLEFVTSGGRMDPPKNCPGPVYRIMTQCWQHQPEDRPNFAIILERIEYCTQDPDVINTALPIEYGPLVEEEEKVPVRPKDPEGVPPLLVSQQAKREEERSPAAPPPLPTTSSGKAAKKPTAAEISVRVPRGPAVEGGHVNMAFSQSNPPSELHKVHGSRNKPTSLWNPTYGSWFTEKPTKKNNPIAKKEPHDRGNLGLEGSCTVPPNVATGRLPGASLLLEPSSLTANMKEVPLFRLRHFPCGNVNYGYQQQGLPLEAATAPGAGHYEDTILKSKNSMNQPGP

[14] = Liver microsome stability, Rat LM-P1; type: in vitro ADME; settings: liver microsomes; for microsomal CLint: read-out: Rat LM-P1 CL
[15] = system: MMP-1 in A549 cells; test: PMA induced MMP-1 production in A549 cells; type: cell-based; settings: one hour treatment
[16] = system: A549 cells; test: TNFα-induced acute inflammation in A549 cells; type: cell-based; settings: 100 nM Dex or 1 μM compound (VI)
[17] = system: IL-8 in A549 cells; test: PMA-induced IL-8 levels in A549 cells, with or without RU-486; type: cell-based; settings: 4 hr treatments
[18] = Caco-2 (TC7) A-B Permeability test (pH 6.5/7.4); settings: A-B Permeability (TC7, pH 6.5/7.4), test concentration 1.0E−05 M
[19] = Caco-2, pH 6.5
[20] = system: FKBP51 (GR pathway); test: GR specific anti-inflammatory marker FKBP51 in A549 cells; type: cell-based
[21] = target: RET (Homo sapiens, UniProt P07949); test: RET cell free kinase assay (Table 3A); type: biochemical
Sequence of RET (P07949 29-1114): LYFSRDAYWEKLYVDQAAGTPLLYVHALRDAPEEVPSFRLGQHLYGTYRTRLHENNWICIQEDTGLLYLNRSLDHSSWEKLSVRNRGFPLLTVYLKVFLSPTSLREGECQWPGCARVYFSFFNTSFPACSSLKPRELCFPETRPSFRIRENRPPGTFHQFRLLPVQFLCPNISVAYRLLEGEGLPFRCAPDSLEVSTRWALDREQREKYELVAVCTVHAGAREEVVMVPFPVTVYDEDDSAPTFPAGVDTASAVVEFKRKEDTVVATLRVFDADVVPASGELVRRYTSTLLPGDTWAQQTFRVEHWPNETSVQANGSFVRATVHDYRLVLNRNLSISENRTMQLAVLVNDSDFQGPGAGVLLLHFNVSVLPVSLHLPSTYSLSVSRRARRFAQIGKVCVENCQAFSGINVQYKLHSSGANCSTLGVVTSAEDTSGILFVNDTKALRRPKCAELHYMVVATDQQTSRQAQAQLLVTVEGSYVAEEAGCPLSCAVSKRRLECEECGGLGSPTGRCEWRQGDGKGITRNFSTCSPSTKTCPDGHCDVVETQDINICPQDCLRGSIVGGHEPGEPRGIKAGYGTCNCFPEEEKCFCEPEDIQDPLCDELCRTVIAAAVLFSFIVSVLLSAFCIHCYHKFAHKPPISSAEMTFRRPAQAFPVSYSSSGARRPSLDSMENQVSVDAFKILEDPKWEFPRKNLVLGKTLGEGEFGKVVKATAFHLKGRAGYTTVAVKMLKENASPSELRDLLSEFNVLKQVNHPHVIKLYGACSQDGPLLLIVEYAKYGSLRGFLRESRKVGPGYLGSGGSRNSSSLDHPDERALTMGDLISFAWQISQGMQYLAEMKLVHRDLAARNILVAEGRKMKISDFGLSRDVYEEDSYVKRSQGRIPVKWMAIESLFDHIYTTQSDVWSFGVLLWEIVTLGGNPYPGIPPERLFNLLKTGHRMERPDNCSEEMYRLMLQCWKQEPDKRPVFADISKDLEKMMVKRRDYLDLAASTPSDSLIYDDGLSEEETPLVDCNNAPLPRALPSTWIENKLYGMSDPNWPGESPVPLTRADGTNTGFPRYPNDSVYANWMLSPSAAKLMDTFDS

[22] = system: A549 cells; test: Prolonged inflammation (PMA induced MMP-1 or IL-8) in A549 cells; type: cell-based; settings: FIG. 17
Excerpt: Panel 3: All the above were done on the transcriptional level (i.e., MMP-1, IL-8, etc. expressions). For IL-8, this was verified on the translational (i.e., protein expression) level as well.

[23] = Tables 9C, 9D, read-out: Solubility Mean
[24] = individual data, read-out: Solubility 1st/2nd
[25] = Table 8D, read-out: GTx-ALK IC50

SMILES: C[C@@H](Cc1cc(F)cc(F)c1F)Nc1cc[nH]c(=O)c1-c1nc2cc3c(cc2[nH]1)CN(CCN1CCCC1)C3=O [compound (VII)]
NGF-stimulated neurite outgrowth [1]: inhibited the neurite outgrowth | PC-12 cell cytotoxicity [2]: lack of PC-12 cell cytotoxicity

SMILES: Cc1ccc(F)cc1C[C@H](C)Nc1cc[nH]c(=O)c1-c1nc2cc3c(cc2[nH]1)C(=O)N(CCN1CCCC1)C3 [drawing 368]
IC50 [13, 25]: 2 nM | half-life [4]: 13.1 min | microsomal CLint [4]: 52.9 µL/min/mg | half-life [10]: > 20 min | microsomal CLint [10]: < 5.8 µL/min/mg | half-life [14]: 8.71 min | microsomal CLint [14]: 79.6 µL/min/mg

SMILES: C[C@@H]1C[C@H]2[C@@H]3CCC4=CC(=O)C=C[C@]4(C)[C@@]3(F)[C@@H](O)C[C@]2(C)[C@@]1(O)C(=O)CO [dexamethasone, reference compound]
Inhibition of PMA induced MMP-1 production [15]: potently inhibit PMA induced MMP-1 production in the nM range | TNFα-induced acute inflammation [16]: partially reversible | Effect of GR antagonist RU-486 on inhibition of PMA-induced IL-8 levels [17]: reversible by GR antagonist RU-486

SMILES: Cc1ccc(F)cc1C[C@H](C)Nc1cc[nH]c(=O)c1-c1nc2cc3c(cc2[nH]1)C(=O)N(CCN1CCCC1)C3 [drawing 360]
IC50 ([13]; Table 3A, read-out: Cell Free IC50 ALK): 2 nM | IC50 [3]: 2 nM | CLint scaled [4]: 52.9 mL/min/kg | IC50 [5]: 81 nM | IC50 [7]: 254 nM | IC50 [8]: > 3000 nM | CLint scaled [10]: < 5.8 mL/min/kg

SMILES: COCCc1ccc(OCC(O)CNC(C)C)cc1 (centres unmarked) [Metoprolol tartrate]
Solubility 1st/2nd ([11]; individual data): 188.93 μm | solubility [11, 23]: 190 µM | solubility [11, 24]: 190 µM | logD [12]: -0.46

SMILES: CC[C@]1(O)C[C@@H]2CN(CCc3c([nH]c4ccccc34)[C@@](C(=O)OC)(c3cc4c(cc3OC)N(C)[C@H]3[C@@](O)(C(=O)OC)[C@H](OC(C)=O)[C@]5(CC)C=CCN6CC[C@]43[C@@H]65)C2)C1 [vinblastin]
Present Recovery 1st ([18]; 1st replicate): 73% | Present Recovery 2nd ([18]; 2nd replicate): 57% | Mean Recovery ([18]; mean of n = 2): 65% | Mean Permeability [19]: 0.0 10^−6 cm/s | Permeability 1st [19]: 0.82 10^−6 cm/s | Permeability 2nd [19]: 0.02 10^−6 cm/s

SMILES: C[C@@H](Cc1c(F)c(F)cc(F)c1F)Nc1cc[nH]c(=O)c1-c1nc2cc3c(cc2[nH]1)CN(CCN1CCCC1)C3=O [compound (III)]
Concentration required for complete inhibition of PMA induced MMP-1 production [15]: ~1 µM | NGF-stimulated neurite outgrowth [1]: inhibited the neurite outgrowth | Effect of GR antagonist RU-486 on inhibition of PMA-induced IL-8 levels [17]: not affected or possibly were more potent | PC-12 cell cytotoxicity [2]: lack of PC-12 cell cytotoxicity | Activation of GR pathway (FKBP51 marker) [20]: did not active the GR pathway

SMILES: CC/C(=C(/CC)c1ccc(O)cc1)c1ccc(O)cc1 [Diethylstilbestrol]
Solubility 1st/2nd ([11]; individual data): 8.59 μm | solubility [11, 23]: 8.6 µM (≈ 2.31 µg/mL) | solubility [11, 24]: 8.6 µM (≈ 2.31 µg/mL) | logD [12]: > 5

SMILES: COC(=O)[C@@]1(O)C[C@H]2O[C@]1(C)n1c3ccccc3c3c4c(c5c6ccccc6n2c5c31)C(=O)NC4 [K252a, reference compound]
Anti-inflammatory effect on prolonged inflammation (PMA induced MMP-1 or IL-8) [22]: demonstrated anti-inflammatory activity which was not reversible by GR antagonist

The next lines start with the values.

IC50 [3]: 3 nM | CLint scaled [4]: 46 mL/min/kg | IC50 [5]: 155 nM | IC50 [6]: 30 nM | IC50 [7]: 526 nM | IC50 [8]: > 3000 nM | IC50 [9]: 455 nM | CLint scaled [10]: < 5.8 mL/min/kg
SMILES: Cc1ccc(F)cc1C[C@H](C)Nc1cc[nH]c(=O)c1-c1nc2cc3c(cc2[nH]1)CN(CCN(C)C)C3=O [drawing 361]

Solubility 1st/2nd ([11]; individual data): 186.51 μm | solubility [11, 23]: 184 µM (≈ 151 µg/mL) | solubility [11, 24]: 181 µM (≈ 149 µg/mL) | logD [12]: 1.23
SMILES: CO[C@H]1/C=C/O[C@@]2(C)Oc3c(C)c(O)c4c(O)c(c(/C=N/N5CCN(C)CC5)c(O)c4c3C2=O)NC(=O)/C(C)=C\C=C\[C@H](C)[C@H](O)[C@@H](C)[C@@H](O)[C@@H](C)[C@H](OC(C)=O)[C@@H]1C [Rifampicin]

IC50 [13, 25]: 3 nM | half-life [4]: 29 min | microsomal CLint [4]: 23.9 µL/min/mg | half-life [10]: > 120 min | microsomal CLint [10]: < 5.8 µL/min/mg | half-life [14]: 4.36 min | microsomal CLint [14]: 159 µL/min/mg
SMILES: C[C@@H](Cc1c(F)c(F)cc(F)c1F)Nc1cc[nH]c(=O)c1-c1nc2cc3c(cc2[nH]1)CN(CCN1CCCC1)C3=O [drawing 370]

CLint scaled [4]: 82.2 mL/min/kg | IC50 [6]: 102 nM | IC50 [21]: 4 nM | IC50 [8]: > 3000 nM | CLint scaled [10]: < 5.8 mL/min/kg
SMILES: C[C@@H](Cc1c(F)c(F)cc(F)c1F)Nc1cc[nH]c(=O)c1-c1nc2cc3c(cc2[nH]1)CN(CCN(C)C)C3=O

IC50 [13, 25]: 5 nM | half-life [4]: 22.1 min | microsomal CLint [4]: 31.4 µL/min/mg | half-life [10]: > 120 min | microsomal CLint [10]: < 5.8 µL/min/mg | half-life [14]: 5 min | microsomal CLint [14]: 138 µL/min/mg
SMILES: C[C@@H](Cc1cc(F)cc(F)c1F)Nc1cc[nH]c(=O)c1-c1nc2cc3c(cc2[nH]1)CN(CCN1CCCC1)C3=O [drawing 369]

Partition Coefficient Log D, Weighed Average of Three Replicates [12]: 2.34
SMILES: O=C1NC(=O)C(c2ccccc2)(c2ccccc2)N1 [Phenytion]
